5 compounds from publication PMC5225203, “Multiparameter toxicity assessment of novel DOPO-derived organophosphorus flame retardants” (Archives of Toxicology, 2016) can be followed below.

Data set [1] relates to human alveolar epithelial cell line A549. As to the kind of experiment: Acute cytotoxicity, MTS reduction, A549. Particulars: A549, 48 h; for concentration producing acute toxicity: MTS; for cell damage (viability, MTS reduction): concentrations as high as 400 µM. It is filed as cell-based. The protocol: The human alveolar epithelial cell line A549 (ATCC: CCL-185) was grown in Roswell Park Memorial Institute (RPMI-1640) medium (Sigma-Aldrich) supplemented with 10 % FCS (Lonza), 2 mM L-glutamine (Gibco), 50 µg/mL penicillin (Gibco), 50 µg/mL streptomycin (Gibco), and 100 µg/mL neomycin (Gibco) at 37 °C in a humidified atmosphere containing 5 % CO2 (hereafter referred to as complete cell culture medium and standard growth conditions, respectively). Cells were subcultured at approximately 80–90 % confluency using 0.5 % trypsin–EDTA (Sigma-Aldrich). For viability assessment, 1.5 × 10^4 cells per well were seeded in 200 µL complete cell culture medium in a 96-well plate and grown overnight under standard growth conditions, after which the cells were treated for 48 h with 200 µL standard growth medium per well containing increasing concentrations of the flame retardants or positive control agent CdSO4. CellTiter96® AQueous One Solution (Promega) containing MTS (3-(4,5-dimethylthiazol-2-yl)-5-(3-carboxymethoxy-phenyl)-2-(4-sulfophenyl)-2H) as a water-soluble tetrazolium compound was used according to the manufacturer’s protocol. Absorption was detected at 490 nm.
(In general: Tetrazolium assays rely on reduction of a dye to a coloured formazan, in cell work by metabolically active cells.)

For data set [2], the system named is THP-1 monocytes differentiated into macrophages. Put plainly: Acute cytotoxicity, MTS reduction, THP-1 macrophages. It is filed as cell-based, human. Particulars: 48 h; for concentration producing acute toxicity: MTS; for cell damage (viability, MTS reduction): concentrations as high as 400 µM. The protocol: The human monocytic cell line THP-1 (ATCC: TIB-202) was grown as cell suspension in complete cell culture medium under standard growth conditions. Subculturing was performed by replacement of the medium when the cell density reached 8 × 10^5 cells/mL. Cell concentrations were not allowed to exceed 10^6 cells/mL. To differentiate THP-1 monocytes into macrophages, cells were grown in the presence of 200 nM phorbol-12-myristate-13-acetate (PMA; Sigma-Aldrich) for 72 h. For viability assessment, 8 × 10^4 cells per well were seeded in 200 µL complete cell culture medium containing 200 nM PMA in a 96-well plate and differentiated for 72 h under standard growth conditions. Thereafter, the medium was removed, the cells were washed twice with pre-warmed phosphate-buffered saline (PBS), and increasing concentrations of flame retardants or CdSO4 were added in 200 µL complete cell culture medium per well for 48 h. CellTiter96® AQueous One Solution (Promega, Switzerland) containing MTS (3-(4,5-dimethylthiazol-2-yl)-5-(3-carboxymethoxy-phenyl)-2-(4-sulfophenyl)-2H) as a water-soluble tetrazolium compound was used according to the manufacturer’s protocol. Absorption was detected at 490 nm.

The subject of the next data set is Daphnia magna. As to the kind of experiment: Acute daphnia immobilization test (OECD guideline 202). It counts as in vivo. Particulars: for Immobile Daphnia after 48 h: 20 individuals; for daphnia viability: at concentrations ≤400 µM (abstract). The protocol: Loading Num ber of I m m obile rate Replicat e individuals Da phnia
(mg/l) per test af t er 48 h
Suppl. Fig. 5. Freshwater microcrustacean toxicity test. Acute toxicity was determined in Daphnia magna according to the standardized OECD guidelines number 202 test, performed by BMG Engineering Ltd., Schlieren, Switzerland. Daphnia were cultured in aerated Elendt M4 medium at a constant temperature of 21°C under a 16:8 light/dark photoperiod. The water soluble fraction of the indicated concentrations of flame retardants were added for 48 h.
Mortality was assessed by the detection of movement analysis. Immobile Daphnia were defined as those animals displaying no movement within a 15 s period following shaking of […]

For the next data set, the system named is Desmodesmus subspicatus. It is filed as cell-based. The protocol:
Suppl. Fig. 6. Freshwater microalgae toxicity test. Acute toxicity was tested by assessing algal growth inhibition applying Desmodesmus subspicatus according to OECD guideline number 201. Growth inhibition tests were performed using an initial cell density of 5 x 10^3 cells/ml (= OD680 of 0.005). The cells were maintained in 250 mL flasks containing 100 mL of sterile OECD algal medium at 22°C at 130 rpm illuminated with 3000 lux. Cell density was detected photospectrometrically at λ680 nm in 24 h intervals in algae cultures treated with the respective flame retardants. Experiments were performed by BMG Engineering Ltd., […]
(1 picture or pasted object on this page, not shown here)

For the next data set, the system named is human neural crest cells. Put plainly: Neural crest cell (NCC) migration assay. It counts as cell-based. Particulars: for cell migration / cell viability / concentration range in which migration was far more affected than cell viability: NCC, 24 h. Here is the method: Human embryogenic stem cells (H9 hESC line; Wisconsin International Stem Cell Bank, Madison, WI, USA) were plated on a confluent layer of mitomycin C-treated murine bone marrow-derived stromal MS5 cells and differentiated as previously described (Lee et al. [2010]; Zimmer et al. [2012]). After 21 days, rosettes were picked and plated onto poly-L-ornithine/laminin/fibronectin-coated plates in N2 medium. After 7 days, cells were FACS-sorted for positive expression of the neural crest marker human natural killer-1 (HNK-1) and expanded in N2 medium supplemented with epidermal growth factor (EGF, 20 ng/mL) and fibroblast growth factor (FGF2, 20 ng/mL). For expansion, the cells were passaged every 6 days using accutase (PAA, Pasching, Austria) to detach the cells. After 30 days of expansion, the cells were cryopreserved in 90 % fetal bovine serum, 10 % DMSO. For the analysis of neural crest cell migration, silicone stoppers (Platypus Technologies, Madison, WI, USA) were inserted in a 96-well plate coated with poly-L-ornithine/laminin/fibronectin. Freshly thawed NCCs were seeded at a density of 100,000 cells/cm^2 in N2 medium containing EGF and FGF2 and allowed to attach for 1 day. Stoppers were removed, and the cells were allowed to migrate into the center of the well. Compounds tested in this study were diluted from a 10 mM stock in DMSO and were applied for 24 h. For single cell detection, cells were stained with H-33342 (1 µg/mL) and calcein-AM (0.5 µM) and imaged using a high content imaging microscope (Cellomics ArrayScanVTI, Thermo Fischer). Viability was assessed by counting the number of H-33342 and calcein double-positive cells outside the migration zone. Migration was detected by acquisition of the number of H-33342 and calcein double-positive cells in the migration area.

Where [3] appears, read: loading rate 10 mg/l, replicate A.
[4] abbreviates: loading rate 10 mg/l, replicate B.
The mark [5] stands for this setting: loading rate 100 mg/l, replicate A.
Setting [6] is: loading rate 100 mg/l, replicate B.
[7] abbreviates: loading rate 1000 mg/l, replicate A.
Where [8] appears, read: loading rate 1000 mg/l, replicate B.
Where [9] appears, read: highest tested concentrations, water-soluble fraction of 1000 mg/L (approximately 2 mM).
The mark [10] stands for this setting: at concentrations ≤400 µM (abstract).
Where [11] appears, read: concentrations as high as 100 µM.

SMILES strings stand for the structures. Like-named read-outs stand apart in the source and are kept apart here. Where only a bound is given, the exact number is not on record here.

For the compound `O=P1(OCCOP2(=O)Oc3ccccc3-c3ccccc32)Oc2ccccc2-c2ccccc21` (stereo not drawn) [EG-DOPO, 6,6′-(ethane-1,2-diylbis(oxy))bis(6H-dibenzo[c,e][1,2]oxaphosphinine-6-oxide)], the “concentration producing acute toxicity” value in data set [1] and in data set [2] was more than 20 µM in each case. The “Immobile Daphnia after 48 h” value with Daphnia magna (setting [3]) was 0%; with Daphnia magna (setting [4]) it was 0%; in the data set on Daphnia magna (setting [5]), 10%; in the data set on Daphnia magna (setting [6]), 0%; in the data set with Daphnia magna (setting [7]) it was 5%; with Daphnia magna (setting [8]), 10%. In addition, the algae growth result in the data set on Desmodesmus subspicatus (setting [9]) is recorded as “inhibited algae growth”. Also, the cell migration result with human neural crest cells is reported as “concentration-dependent declines”. In the data set on human neural crest cells, the cell viability entry is recorded as “concentration-dependent declines”. Further, in the data set with human neural crest cells, the “concentration range in which migration was far more affected than cell viability” value lay within 30 to 60 µM.
Consider `O=P1(NCCNP2(=O)Oc3ccccc3-c3ccccc32)Oc2ccccc2-c2ccccc21` (stereo not drawn) [EDA-DOPO, 6,6′-(ethane-1,2-diylbis(azanediyl))bis(6H-dibenzo[c,e][1,2]oxaphosphinine-6-oxide)], for which the “cell damage (viability, MTS reduction)” value in data set [1] and in data set [2] was “no signs of cell damage” throughout. In the data set on Daphnia magna, the daphnia viability result was “nor did they affect algae growth or daphnia viability”. Further, the “Immobile Daphnia after 48 h” value with Daphnia magna (setting [3]) came out at 0%; in the data set on Daphnia magna (setting [4]) it was 0%; in the data set with Daphnia magna (setting [5]) it was 0%; in the data set with Daphnia magna (setting [6]), 0%; in the data set with Daphnia magna (setting [7]) it was 5%; with Daphnia magna (setting [8]), 10%. For the same compound, the algae growth entry in the data set on Desmodesmus subspicatus (setting [10]) was “nor did they affect algae growth or daphnia viability”; in the data set on Desmodesmus subspicatus (setting [9]), “no effect”. The cell migration entry in the data set on human neural crest cells was “inhibited neither cell migration”. Further, the “NCC migration and NCC viability” value in the data set on human neural crest cells (setting [11]) was “influenced neither NCC migration nor NCC viability”.
Consider `O=P1(NCCOP2(=O)Oc3ccccc3-c3ccccc32)Oc2ccccc2-c2ccccc21` (stereo not drawn) [ETA-DOPO, 6-(2-((6-oxido-6H-dibenzo[c,e][1,2]oxaphosphinin-6-yl)amino)ethoxy)-6H-dibenzo[c,e][1,2]oxaphosphinine 6-oxide], for which the “concentration producing acute toxicity” value in data set [1] and in data set [2] was more than 20 µM each time. The “Immobile Daphnia after 48 h” value came to 5% in the data set with Daphnia magna (setting [3]); 0% in the data set on Daphnia magna (setting [4]); 0% in the data set with Daphnia magna (setting [5]); 0% in the data set on Daphnia magna (setting [6]); 5% in the data set on Daphnia magna (setting [7]); 0% with Daphnia magna (setting [8]). Besides, the algae growth entry in the data set on Desmodesmus subspicatus (setting [9]) is given as “no effect”. Besides, in the data set on human neural crest cells, the cell migration result is on record as “concentration-dependent declines”. Besides, the cell viability result in the data set on human neural crest cells is on record as “concentration-dependent declines”. Also, the “concentration range in which migration was far more affected than cell viability” value in the data set on human neural crest cells is 30 to 60 µM.
For `O=[PH]1Oc2ccccc2-c2ccccc21` (stereo not drawn) [DOPO, 9,10-dihydro-9-oxa-10-phosphaphenanthrene-10-oxide], the “cell damage (viability, MTS reduction)” value in data set [1] and in data set [2] was “no signs of cell damage” throughout. Besides, the daphnia viability entry with Daphnia magna is on record as “nor did they affect algae growth or daphnia viability”. Besides, in the data set on Desmodesmus subspicatus (setting [10]), the algae growth result is given as “nor did they affect algae growth or daphnia viability”. Besides, in the data set with human neural crest cells, the cell migration entry is on record as “inhibited neither cell migration”. For the same compound, the “NCC migration and NCC viability” value with human neural crest cells (setting [11]) is “influenced neither NCC migration nor NCC viability”.
As for `Brc1ccc(Oc2cc(Br)c(Br)cc2Br)c(Br)c1` [PBDE-99, reference compound], in data set [1], the “cell damage (viability, MTS reduction)” value is given as “no signs of cell damage”. Further, the “cell damage (viability, MTS reduction)” value in data set [2] is “no signs of cell damage”. Also, in the data set with human neural crest cells, the cell migration result is reported as “moderately, but significantly, inhibited” and the cell viability result is recorded as “did not reduce cell viability”. In addition, the “viability of human NCCs” value in the data set with human neural crest cells (setting [11]) was “did not reduce the viability”.
